{"source": "patent US9636374B2", "about": "“pH-sensitive polymer-drug conjugates for targeted delivery of therapeutics” (priority 2011, dated 2017)", "key": {"[1]": {"assay": "H1-NMR analysis of pH-dependent dissociation of bortezomib-catechol conjugates", "assay_type": "physicochemical", "details": "as the pH decreased from 7.4 to 5.5; 1 mM in deuterated phosphate buffer", "experimental": "First, the pH-dependent reversible binding between BTZ and catechol-containing polymers was characterized using H^1-NMR spectroscopy (FIG. 3A). At pH 5.5, mixing BTZ and catechol-containing dopamine (DA) gave a spectrum similar to that of the two individual compounds superimposed on each other, indicating the presence of un-complexed BTZ and DA.\nH^1-NMR analysis of pH-dependent dissociation of bortezomib-catechol conjugates. Bortezomib and dopamine hydrogen chloride were dissolved separately in d6-DMSO 0.2 M concentration. The two solutions were mixed to give a stock solution of DA-BTZ conjugate at 0.1 M in DMSO. A solution of 0.1 M monosodium phosphate in D2O was used to dilute the DA-BTZ stock to 1 mM, and pH of such solutions were adjusted with 4N NaOH in D2O to 5.5, 6.5, 7.4 and 8.5. These solutions were analyzed on AVANCE III 500 MHz (FIG. 6) and peak integrals in the range of 7.2 to 5.5 ppm were used for quantifying the degree of dissociation of DA-BTZ presented in FIG. 3B."}, "[2]": {"tested_on": "MDA-MB-231, MCF-10A-H-RasV12 and MCF-10A-Vector cells", "assay": "Biotin-mediated cell uptake of PEG-FITC (fluorescence microscopy)", "assay_type": "cell-based, human", "details": "15 minute-treatment; for cellular uptake: 1 μM, cancer and noncancerous cells"}, "[3]": {"assay": "3-component inhibition fluorescence assay (ARS-bortezomib competition)", "assay_type": "physicochemical", "details": "from pH 7.4 to pH 5.5", "experimental": "3-component inhibition fluorescence assay. The fluorescence assay for characterizing pH-sensitive binding between bortezomib and catechol was carried out using procedures modified from the aforementioned literature method. Briefly, a solution of 0.1 mM ARS was prepared in 0.1 M phosphate monosodium buffer (solution A). Bortezomib was dissolved in solution A to achieve final concentration of 1 mM (solution B). The pH of both solution A and solution B was adjusted to 5.5, 6.5 and 7.4 using a 4N NaOH aqueous solution. Solution B was titrated to solution A to make a series of solutions that contain constant concentration of ARS (0.1 mM) and varying concentration of bortezomib (0˜1 mM) at defined pH. After mixing the two solutions, the final solution stood for 5 minutes before fluorescence measurement at excitation 495 nm, emission 565 nm on SpectraMax M5 (Molecular Devices, Sunnyvale, Calif.). This procedure was used to probe the pH-dependence of ARS-BTZ binding (FIG. 6). The binding capacity of catechol for bortezomib was characterized based on the inhibition of catechol on ARS-bortezomib binding, resulting in a decrease in fluorescence intensity. […] Fluorescence intensity of each solution was measured to plot the binding inhibition curves in FIG. 7. […] Fmax refers to the fluorescence intensity of ARS-BTZ conjugate in solution C at a defined pH. […]"}}, "note": "“Also recorded” adds a separate entry of the source.", "data": [{"compound": "CC(C)CC(NC(=O)C(Cc1ccccc1)NC(=O)c1cnccn1)B1Oc2ccc(CCN)cc2O1", "note": "(centres unmarked) [BTZ-catechol conjugate]", "values": [{"measurement": "increase in dissociation of the BTZ-catechol conjugate", "setting": "[1]", "result": 50, "unit": "%"}]}, {"compound": "O=C(O)CCCC[C@@H]1SC[C@@H]2NC(=O)N[C@@H]21", "note": "[biotin, reference compound]", "values": [{"measurement": "inhibition of cellular uptake of biotin-PEG-FITC", "setting": "[2]; free biotin in buffer", "result": "Dose-dependent inhibition"}]}, {"compound": "PEG-FITC", "values": [{"measurement": "cellular uptake", "setting": "[2]", "result": "little; also recorded: minimal"}]}, {"compound": "PEG-catechol", "values": [{"measurement": "decrease in binding affinity for BTZ", "setting": "[3]", "result": "about 60%"}]}, {"compound": "biotin-PEG-FITC", "values": [{"measurement": "cellular uptake", "setting": "[2]", "result": "showed uptake; also recorded: rapidly taken up"}]}]}
